Values of other authors, collected in patent US20230255953A1, “USE OF ROLUPERIDONE IN PREVENTING RELAPSE IN SCHIZOPHRENIA PATIENTS” (Minerva Neurosciences, Inc., priority 2022, published 2023).
Read-outs that look alike come from different tables or passages of the source.

Tests used:
chronic schizophrenia = settings: Arato et al. 2002 (ZEUS), cited from earlier work
[1] = tested on: patients with schizophrenia; settings: Durgam et al. 2016; cited from earlier work

SMILES	Relapse rate after one year (chronic schizophrenia; 40 mg/day) [%]	Relapse rate after one year (chronic schizophrenia; 80 mg/day) [%]	Relapse rate after one year (chronic schizophrenia; 160 mg/day) [%]	Relapse rate [1] [%]
O=C1Cc2cc(CCN3CCN(c4nsc5ccccc45)CC3)c(Cl)cc2N1 [ziprasidone]	43	35	36	
CN(C)C(=O)N[C@H]1CC[C@H](CCN2CCN(c3cccc(Cl)c3Cl)CC2)CC1 [cariprazine]				24.8
